Assay results reported in BigSolDB 2.1.

O=[N+]([O-])c1cc([N+](=O)[O-])c(Cl)c(Cl)c1Cl
solubility (mole fraction)
Settings	278.15 K	283.15 K	288.15 K	293.15 K	298.15 K	303.15 K	308.15 K	313.15 K	318.15 K	323.15 K
in 1,2-dichloroethane	0.06	0.0736	0.0895	0.108	0.13	0.155	0.185	0.219	0.258	0.301
in DMF	0.194	0.211	0.23	0.251	0.274	0.298	0.324	0.352	0.384	0.419
in DMSO	–	–	–	0.238	0.262	0.287	0.315	0.345	0.378	0.412
in NMP	0.278	0.291	0.305	0.321	0.338	0.357	0.377	0.4	0.425	0.454
in acetone	0.109	0.124	0.141	0.16	0.181	0.204	0.229	0.257	0.289	0.323
in acetonitrile	0.0401	0.0511	0.0644	0.0806	0.1	0.123	0.15	0.183	0.22	0.265
in chloroform	0.0536	0.066	0.0807	0.0982	0.118	0.141	0.169	0.201	0.237	0.279
in dichloromethane	0.0689	0.0822	0.0975	0.116	0.135	0.159	0.185	–	–	–
in ethanol	0.00235	0.00301	0.00382	0.00483	0.00611	0.00765	0.00957	0.0118	0.0146	0.0182
in ethyl acetate	0.097	0.111	0.128	0.146	0.167	0.191	0.217	0.245	0.279	0.314
in isopropanol	0.000879	0.00125	0.00174	0.00241	0.00333	0.00451	0.00603	0.00807	0.0107	0.0142
in methanol	0.00262	0.0033	0.00414	0.00519	0.00648	0.00806	0.00985	0.0121	0.0149	0.0182
in n-butanol	0.00175	0.00238	0.0032	0.00428	0.00565	0.00752	0.00967	0.0126	0.0164	0.021
in tetrachloromethane	0.00374	0.00582	0.00891	0.0134	0.0201	0.0296	0.0425	0.0609	0.0864	0.12
in toluene	0.14	0.159	0.18	0.204	0.23	0.258	0.289	0.323	0.36	0.4
